Assay results from US20220395553A1, “CXCR4 ANTAGONIST PEPTIDES” (COHBAR, INC., priority 2019, published 2022).
Square brackets hold non-standard residues; d marks the D form. Peptide text beside a SMILES is read from it.

Experiments:
[1] = tested on: SH-SY5Y Neuroblastoma Cells; assay: ATP levels (CellTiter-Glo); format: cell-based, human; conditions: peptide 10 μM, 18-20 hours, relative to 0.1% DMSO treated control
Procedure: The effect of the peptides on cellular metabolism can be assessed using an assay of ATP levels in cultured cells such as human neuroblastoma cells. Peptides were initially prepared as 10 mM stock in DMSO and used at a final concentration of 10 μM (0.1% DMSO). […] CellTiter-Glo® Assay kit was purchased from Promega. SH-SY5Y human bone marrow neuroblastoma cell line was purchased from American Type Culture Collection (Manassas, Va.) and licensed from Memorial Sloan-Kettering Cancer Center (New York, N.Y.). SH-SY5Y cells were grown in DMEM/F12 medium supplemented with 10% FBS with 100 IU/ml penicillin and 100 μg/ml streptomycin. Cultures were maintained at 37° C. in a humidified atmosphere of 5% CO2/95% air. SH-SY5Y cells were seeded at 30,000 cells per well on 96-well plates. […] ATP levels were determined using a CellTiter-Glo Assay kit (Promega) according to the manufacturer's instructions. Luminescence for each sample well on the plate was measured using a Cytation 3 plate reader (BioTek, Winooski, Vt.). Activity was calculated relative to 0.1% DMSO treated control. The relative standard deviation of the result for the 0.1% DMSO treated control was <5%.

[2] = tested on: Jurkat cells; assay: CXCL12 mediated cell migration, Jurkat cells; format: cell-based, human; conditions: 1.1 μM test article, 100 ng/ml CXCL12, 1 hour
Summary of the method: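 Jurkat cells in serum-free RPMI with 0.5% BSA, 250,000 per upper chamber of a 5 μm Transwell, with peptides at 1.1 μM final. Migration toward CXCL12 ran 1 h at 37 °C in 5% CO2. Cells reaching the lower chamber quantified by ATP luminescence (CellTiter-Glo 2.0).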

[3] = tested on: Rat H-4-II-E Cells; assay: Cell proliferation, BrdU incorporation; format: cell-based; conditions: peptide 10 μM, 18-20 hours, relative to 0.1% DMSO control
Procedure: The effect of the peptides on cell proliferation can be assessed using an assay of BrdU incorporation in cultured cells. Peptides were initially prepared as 10 mM stock in DMSO and tested at a final concentration of 10 μM (0.1% DMSO). BrdU Cell Proliferation Assay kit was purchased from Cell Signaling Technology. H-4-II-E rat liver hepatoma cell line was purchased from American Type Culture Collection (Manassas, Va.). H-4-II-E cells were grown in DMEM supplemented with 10% FBS with 100 IU/ml penicillin and 100 μg/ml streptomycin. Cultures were maintained at 37° C. in a humidified atmosphere of 5% CO2/95% air. H-4-II-E cells were seeded at 20,000 cells per well on 96-well plates. The next day cells were incubated with test peptides at 10 μM in 0.1% DMSO and maintained at 37° C. in a humidified atmosphere of 5% CO2/95% air for 18-20 hours. Cell proliferation was determined using a BrdU Cell Proliferation Assay kit (Cell Signaling Technology) according to the manufacturer's instructions. Absorption for each sample well on the plate was measured using a Cytation 3 plate reader at 450 nm (BioTek, Winooski, Vt.). Activity was calculated relative to 0.1% DMSO untreated control.

[4] = tested on: C2C12 Mouse Myoblasts; assay: Glucose utilization in C2C12 mouse myoblasts; format: cell-based; conditions: peptide 10 μM, 18-22 hours, relative to 0.1% DMSO treated control cells
Procedure: The effect of the peptides on glucose metabolism can be assessed using an assay of glucose utilization in cultured cultured cells such as mouse myoblasts. Peptides were initially prepared as 10 mM stock in DMSO and used at a final concentration of 10 μM (0.1% DMSO). C2C12 mouse myoblast cell line was purchased from American Type Culture Collection (Manassas, Va.). C2C12 cultures were maintained at 37° C. in a humidified atmosphere of 5% CO2/95% air with medium changes every second day. C2C12 cells were grown in DMEM (1 g/L glucose) supplemented with 10% FBS with 100 IU/ml penicillin and 100 μg/ml streptomycin. C2C12 cells were seeded at 7,000 cells per well on 96-well plates and cultured to confluence. Once the cell reached confluence the media was changed to DMEM (1 g/L glucose) supplemented with 2% HS with 100 IU/ml penicillin and 100 μg/ml streptomycin and maintained at 37° C. in a humidified atmosphere of 5% CO2/95% air, 5 days post-induction of differentiation fresh DMEM (1 g/L glucose) supplemented with 2% HS with 100 IU/ml penicillin and 100 μg/ml streptomycin was added to cultures. Cells were maintained at 37° C. in a humidified atmosphere of 5% CO2 and 95% air for 5 hours. After 5 hours test peptides at 10 μM or controls (0.5 mM or 1 mM metformin in 1% DMSO) prepared in fresh differentiation medium were added to cells and the cultures were maintained at 37° C. in a humidified atmosphere of 5% CO2/95% air for 18-22 hours. At the end of the incubation culture media was removed from the cells and the remaining glucose concentration was measured using a Glucose Assay kit (Abcam) according to the manufacturer's instructions, using a Cytation 3 plate reader at 570 nm (BioTek, Winooski, Vt.). Glucose concentrations in the medium were calculated relative to 0.1% DMSO treated control cells. The relative standard deviation of the result for the 0.1% DMSO treated control was <20%. Metformin was used as a positive control for reduction of glucose levels (increased glucose utilization glucose levels for treatment with metformin (1 mM) treatment were <20% of the 0.1% DMSO treated control value. The results are reported in Table 7.

Row | SMILES | ATP Levels, % Control [1] [%] | Percent Inhibition of CXCL12 Mediated Migration (1.1 μM Test Article) [2] [%] | BrdU Incorporation, Percent of Control [3] [%] | Glucose concentration in medium, Percent of Untreated Control [4] [%]
1 | CC(C)C[C@H](NC(=O)[C@H](CO)NC(=O)[C@H](CO)NC(=O)[C@H](CCCNC(=N)N)NC(=O)[C@@H](NC(=O)[C@H](CO)NC(=O)[C@H](Cc1c[nH]cn1)NC(=O)[C@H](Cc1c[nH]cn1)NC(=O)[C@H](Cc1ccc(O)cc1)NC(=O)[C@H](CCCNC(=N)N)NC(=O)[C@H](CCC(=O)O)NC(=O)[C@@H](N)CC(C)C)C(C)C)C(=O)N[C@@H](CCCNC(=N)N)C(=O)N1CCC[C@H]1C(=O)N[C@@H](Cc1ccc(O)cc1)C(=O)N[C@H](C(=O)N[C@@H](CCCCN)C(=O)O)[C@@H](C)O [compound 4] (H-LERYHHSVRSSLRPYTK-OH; N-terminus and C-terminus assumed) | 98.5 | 77 | 114.4 | 127.8
2 | CSCC[C@H](N)C(=O)N[C@@H](CC(C)C)C(=O)N[C@@H](CCCNC(=N)N)C(=O)N[C@@H](CCCNC(=N)N)C(=O)N[C@@H](Cc1ccc(O)cc1)C(=O)N[C@@H](Cc1c[nH]cn1)C(=O)N[C@@H](Cc1c[nH]cn1)C(=O)N[C@@H](CO)C(=O)N[C@H](C(=O)N[C@@H](CCCNC(=N)N)C(=O)N[C@@H](CO)C(=O)N[C@@H](CO)C(=O)N[C@@H](CC(C)C)C(=O)N[C@@H](CCCNC(=N)N)C(=O)N1CCC[C@H]1C(=O)N[C@@H](Cc1ccc(O)cc1)C(=O)N[C@H](C(=O)N[C@@H](CCCCN)C(=O)O)[C@@H](C)O)C(C)C [compound 2] (H-MLRRYHHSVRSSLRPYTK-OH; N-terminus and C-terminus assumed) | 100.1 | 4 | 123.6 | 126.7
3 | CC(C)C[C@H](NC(=O)[C@H](CO)NC(=O)[C@H](CO)NC(=O)[C@H](CCCNC(=N)N)NC(=O)[C@@H](C)NC(=O)[C@H](CO)NC(=O)[C@H](Cc1c[nH]cn1)NC(=O)[C@H](Cc1c[nH]cn1)NC(=O)[C@H](Cc1ccc(O)cc1)NC(=O)[C@H](CCCNC(=N)N)NC(=O)[C@H](CCC(=O)O)NC(=O)[C@@H](N)CC(C)C)C(=O)N[C@@H](CCCNC(=N)N)C(=O)N1CCC[C@H]1C(=O)N[C@@H](Cc1ccc(O)cc1)C(=O)N[C@H](C(=O)O)[C@@H](C)O [compound 5] (H-LERYHHS[dA]RSSLRPYT-OH; N-terminus and C-terminus assumed) | 97.0 | 46 | 131.1 | 128.3
4 | CC(C)C[C@H](NC(=O)[C@H](CO)NC(=O)[C@H](CO)NC(=O)[C@H](CCCNC(=N)N)NC(=O)[C@@H](NC(=O)[C@H](CO)NC(=O)[C@H](Cc1c[nH]cn1)NC(=O)[C@H](Cc1c[nH]cn1)NC(=O)[C@H](Cc1ccc(O)cc1)NC(=O)[C@H](CCCNC(=N)N)NC(=O)[C@H](CCCNC(=N)N)NC(=O)[C@@H](N)CC(C)C)C(C)C)C(=O)N[C@@H](CCCNC(=N)N)C(=O)N1CCC[C@H]1C(=O)N[C@@H](Cc1ccc(O)cc1)C(=O)N[C@H](C(=O)N[C@@H](CCCCN)C(=O)O)[C@@H](C)O [compound 3] (H-LRRYHHSVRSSLRPYTK-OH; N-terminus and C-terminus assumed) | 102.5 | 66 | 130.3 | 125.8
